From patent publication US20250282749A1 (Tango Therapeutics, Inc., priority 2022, published 2025)

How the values were obtained:
Type in all cases: cell-based
[1] = test system: PRMT5 (SDMA) in HAP1 MTAP-intact cell line; test: SDMA in-cell western assay, HAP1 MTAP-intact cell line; conditions: Homo sapiens, HAP1 MTAP-intact cell line (endogenous MTAP), read-out: Hap 1 MTAP intact IC50
Source text: (§1) HAP1 MTAP-intact is a cell line in which endogenous levels of MTAP are expressed, and HAP1 MTAP-deleted is an MTAP-null cell line.

[2] = test system: PRMT5 (SDMA) in HAP1 MTAP-deleted cell line; test: SDMA in-cell western assay, HAP1 MTAP-deleted cell line; conditions: for IC50 / IC90: Homo sapiens, SDMA in-cell western, HAP1 MTAP-deleted (MTAP-null) cell line; for Hap1 MTAP intact/deleted ratio: ratio of SDMA in-cell western IC50 in HAP1 MTAP-intact to IC50 in HAP1 MTAP-deleted cell line
Source text: as §1

[3] = test system: HAP1 MTAP-deleted cell line; test: viability assay for the MTAP-deleted cell line; conditions: Homo sapiens

Row | Structure (SMILES) | IC50 [1] [nM] | IC50 [2] [nM] | IC90 [2] [nM] | Hap1 MTAP intact/deleted ratio [2] | IC50 [3] [nM]
1 | CC(C)C(=O)N1C[C@H](c2ccc3scnc3c2)N(C(=O)C(=O)Nc2cnc(N)c(C3CC3)c2)C[C@H]1C [Compound 93, N-(6-amino-5-cyclopropyl-3-pyridyl)-2-[(2S,5R)-2-(1,3-benzothiazol-5-yl)-5-methyl-4-(2-methylpropanoyl)piperazin-1-yl]-2-oxo-acetamide] | 5 to 50 | 5 to 50 | < 75 | C (an IC50 ratio of less than 15 fold) | < 100
2 | C[C@@H]1CN(C(=O)C(=O)Nc2cnc(N)c(C3COC3)c2)[C@@H](c2ccc(F)cc2)CN1C(=O)OC(C)(C)C [Compound 2, (2R,5S)-tert-butyl 4-(2-((6-amino-5-(oxetan-3-yl)pyridin-3-yl)amino)-2-oxoacetyl)-5-(4-fluorophenyl)-2-methylpiperazine-1-carboxylate] | > 50 | < 5 | < 75 | C (an IC50 ratio of less than 15 fold) | < 100
3 | CCc1cc(NC(=O)C(=O)N2C[C@@H](C)N(C(=O)C3(C)CC3)C[C@@H]2c2ccc(N3CCN(C)CC3)cc2)cnc1N [Compound 105, N-(6-amino-5-ethylpyridin-3-yl)-2-((2S,5R)-5-methyl-4-(1-methylcyclopropanecarbonyl)-2-(4-(4-methylpiperazin-1-yl)phenyl)piperazin-1-yl)-2-oxoacetamide] | > 50 | < 5 | < 75 | B (an IC50 ratio greater than or equal to 15 fold but lower than 30 fold) | < 100
4 | C[C@@H]1CN(C(=O)C(=O)Nc2cnc(N)c3cn[nH]c23)[C@@H](c2cccc(Cl)c2)CN1C [Compound 18] | > 50 | < 5 | < 75 | A (an IC50 ratio greater than or equal to 30 fold) | < 100
5 | Cc1cc(NC(=O)C(=O)N2C[C@@H](C)N(C(=O)C3(C(F)(F)F)CC3)C[C@@H]2c2ccc(Cl)cc2)cnc1N [Compound 131, N-(6-amino-5-methylpyridin-3-yl)-2-((5R)-2-(4-chlorophenyl)-5-methyl-4-(1-(trifluoromethyl)cyclopropanecarbonyl)piperazin-1-yl)-2-oxoacetamide] | > 50 | < 5 | 75 to 125 | C (an IC50 ratio of less than 15 fold) | 100 to 1000
6 | CCc1cc(NC(=O)C(=O)N2C[C@@H](C)N(C(=O)C(C)C)C[C@@H]2c2cccc(N3CCN(C)CC3)c2)cnc1N [Compound 41, N-(6-amino-5-ethylpyridin-3-yl)-2-((2S,5R)-4-isobutyryl-5-methyl-2-(3-(4-methylpiperazin-1-yl)phenyl)piperazin-1-yl)-2-oxoacetamide] | 5 to 50 | < 5 | < 75 | C (an IC50 ratio of less than 15 fold) | < 100
7 | Cc1cccc([C@H]2CN(C(=O)C3(C(F)(F)F)CC3)[C@H](C)CN2C(=O)C(=O)Nc2cnc(N)c(C)c2)c1 [Compound 30, N-(6-amino-5-methylpyridin-3-yl)-2-((2S,5R)-5-methyl-2-(m-tolyl)-4-(1-(trifluoromethyl)cyclopropanecarbonyl)piperazin-1-yl)-2-oxoacetamide] | > 50 | 5 to 50 | 75 to 125 | C (an IC50 ratio of less than 15 fold) | < 100
8 | Cc1cc(NC(=O)C(=O)N2C[C@@H](C)N(C(=O)C(C)(C)CN3CCN(C)CC3)C[C@@H]2c2ccccc2)cnc1N [Compound 134] | 5 to 50 | 5 to 50 | > 125 | C (an IC50 ratio of less than 15 fold) | < 100
9 | CCc1cc(NC(=O)C(=O)N2C[C@@H](C)N(C(=O)C(C)C)C[C@@H]2c2cccc(OCCN(C)C)c2)cnc1N [Compound 67, N-(6-amino-5-ethylpyridin-3-yl)-2-((2S,5R)-2-(3-(2-(dimethylamino)ethoxy)phenyl)-4-isobutyryl-5-methylpiperazin-1-yl)-2-oxoacetamide] | 5 to 50 | < 5 | < 75 | C (an IC50 ratio of less than 15 fold) | < 100
10 | Cc1cc(NC(=O)C(=O)N2C[C@@H](C)N(C(=O)C(C)C)C[C@@H]2c2ccc(F)c(Cl)c2)cnc1N [Compound 74, N-(6-amino-5-methylpyridin-3-yl)-2-((2S,5R)-2-(3-chloro-4-fluorophenyl)-4-isobutyryl-5-methylpiperazin-1-yl)-2-oxoacetamide] | > 50 | 5 to 50 | 75 to 125 | A (an IC50 ratio greater than or equal to 30 fold) | 100 to 1000
11 | C[C@@H]1CN(C(=O)C(=O)Nc2cnc(N)c(C3CC3)c2)[C@@H](c2ccc(F)cc2)CN1C(=O)C(C)(C)C [Compound 152, N-(6-amino-5-cyclopropylpyridin-3-yl)-2-((2S,5R)-2-(4-fluorophenyl)-5-methyl-4-pivaloylpiperazin-1-yl)-2-oxoacetamide] | 5 to 50 | < 5 | 75 to 125 | C (an IC50 ratio of less than 15 fold) | < 100
12 | Cc1cc(NC(=O)C(=O)N2C[C@@H](C)N(C(=O)C3(C(F)(F)F)CC3)C[C@@H]2c2ccc(N3CCN(C)CC3)cc2)cnc1N [Compound 77, N-(6-amino-5-methylpyridin-3-yl)-2-((2S,5R)-5-methyl-2-(4-(4-methylpiperazin-1-yl)phenyl)-4-(1-(trifluoromethyl)cyclopropanecarbonyl)piperazin-1-yl)-2-oxoacetamide] | 5 to 50 | < 5 | < 75 | B (an IC50 ratio greater than or equal to 15 fold but lower than 30 fold) | < 100
13 | CCc1cc(NC(=O)C(=O)N2C[C@@H](C)N(C(=O)C3(C(F)(F)F)CC3)C[C@@H]2c2ccc(N3CCN(C)CC3)cc2)cnc1N [Compound 132, N-(6-amino-5-ethylpyridin-3-yl)-2-((2S,5R)-5-methyl-2-(4-(4-methylpiperazin-1-yl)phenyl)-4-(1-(trifluoromethyl)cyclopropanecarbonyl)piperazin-1-yl)-2-oxoacetamide] | 5 to 50 | < 5 | < 75 | C (an IC50 ratio of less than 15 fold) | < 100
14 | COc1ncc(NC(=O)C(=O)N2C[C@@H](C)N(C(=O)C(C)C)C[C@@H]2c2cccc(N3CCN(C)CC3)c2)cc1C(N)=O [Compound 10, 5-(2-((2S,5R)-4-isobutyryl-5-methyl-2-(3-(4-methylpiperazin-1-yl)phenyl)piperazin-1-yl)-2-oxoacetamido)-2-methoxynicotinamide] | > 50 | 5 to 50 | > 125 | C (an IC50 ratio of less than 15 fold) | 100 to 1000
15 | CCc1cc(NC(=O)C(=O)N2C[C@@H](C)N(C(=O)C(C)C)C[C@@H]2c2ccc(N3CCN(C)CC3)cc2)cnc1N [Compound 89, N-(6-amino-5-ethylpyridin-3-yl)-2-((2S,5R)-4-isobutyryl-5-methyl-2-(4-(4-methylpiperazin-1-yl)phenyl)piperazin-1-yl)-2-oxoacetamide] | > 50 | < 5 | < 75 | A (an IC50 ratio greater than or equal to 30 fold) | < 100
16 | C[C@@H]1CN(C(=O)C(=O)Nc2cnc(N)c(C3CC3)c2)[C@@H](c2ccc(F)cc2)CN1C(=O)OC(C)(C)C (stereo in doubt) [Compound 144, tert-butyl 4-(2-((6-amino-5-cyclopropylpyridin-3-yl)amino)-2-oxoacetyl)-5-(4-fluorophenyl)-2-methylpiperazine-1-carboxylate] | > 50 | < 5 | < 75 | B (an IC50 ratio greater than or equal to 15 fold but lower than 30 fold) | < 100
17 | Cc1cc(NC(=O)C(=O)N2C[C@H](C)N(CC(C)C)C[C@H]2c2ccc(F)cc2)cnc1N [Compound 80, N-(6-amino-5-methyl-3-pyridyl)-2-[(2R,5S)-2-(4-fluorophenyl)-4-isobutyl-5-methyl-piperazin-1-yl]-2-oxo-acetamide] | > 50 | 5 to 50 | > 125 | C (an IC50 ratio of less than 15 fold) | 100 to 1000
18 | C[C@@H]1CN(C(=O)C(=O)Nc2cnc(N)c3c2cnn3C)[C@@H](c2ccccc2)CN1C [Compound 164, N-(7-Amino-1-methyl-pyrazolo[3,4-c]pyridin-4-yl)-2-oxo-2-[(2S,5R)-4,5-dimethyl-2-phenyl-piperazin-1-yl]acetamide] | > 50 | 5 to 50 | 75 to 125 | A (an IC50 ratio greater than or equal to 30 fold) | < 100
19 | C[C@@H]1CN(C(=O)C(=O)Nc2cncc3cn[nH]c23)[C@@H](c2ccc3scnc3c2)CN1C(=O)C1(C)CC1 (racemic) [Compound 61, 2-oxo-N-(1H-pyrazolo[4,3-c]pyridin-7-yl)-2-[rac-(2S,5R)-2-(1,3-benzothiazol-5-yl)-5-methyl-4-(1-methylcyclopropanecarbonyl)piperazin-1-yl]acetamide] | > 50 | 5 to 50 | 75 to 125 | C (an IC50 ratio of less than 15 fold) | 100 to 1000
